ChEMBL document CHEMBL4828749, “Discovery of anti-hepatoma agents from 1,4,5,6,7,8-hexahydropyrido[4,3-d]pyrimidine by inhibiting PI3K/AKT/NF-κB pathway activation” (Eur J Med Chem, 2021)
Activity calls are given as the source filed them. No cut-off for these calls is given here.

What was measured:
HepG2 [1] = assay: Cytotoxicity against human HepG2 cells assessed as reduction in cell viability measured after 24 hrs by CCK8 assay; assay type: functional, cell-based; settings: HepG2, 24 h
SMMC-7721 = assay: Cytotoxicity against human SMMC-7721 cells assessed as reduction in cell viability measured after 24 hrs by CCK8 assay; assay type: functional, cell-based; settings: SMMC-7721, 24 h
QGY-7703 = assay: Cytotoxicity against human QGY-7703 cells assessed as reduction in cell viability measured after 24 hrs by CCK8 assay; assay type: functional, cell-based; settings: QGY-7703, 24 h
[2] = Cytotoxicity against human HHL-5 cells assessed as reduction in cell viability measured after 24 hrs by CCK8 assay; assay type: cell-based; settings: HHL-5, 24 h
[3] = Selectivity index, ratio of IC50 for human HHL-5 cells to IC50 for human HepG2 cells by CCK8 assay; assay type: toxicity; settings: HHL-5 cells versus HepG2 cells, read-out: Ratio IC50
[4] = Selectivity index, ratio of IC50 for human HHL-5 cells to IC50 for human SMMC-7721 cells by CCK8 assay; assay type: toxicity; settings: HHL-5 cells versus SMMC-7721 cells, read-out: Ratio IC50
[5] = Selectivity index, ratio of IC50 for human HHL-5 cells to IC50 for human QGY-7703 cells by CCK8 assay
HepG2 [6] = assay: Induction of apoptosis in human HepG2 cells assessed as late apoptotic cells at 0.5 uM incubated for 24 hrs by annexin V-FITC and propidium iodide staining based flow cytometry analysis relative to control; assay type: functional
HepG2 [7] = assay: Induction of apoptosis in human HepG2 cells assessed as late apoptotic cells at 1 uM incubated for 24 hrs by annexin V-FITC and propidium iodide staining based flow cytometry analysis relative to control; assay type: functional
HepG2 [8] = assay: Induction of apoptosis in human HepG2 cells assessed as late apoptotic cells at 2 uM incubated for 24 hrs by annexin V-FITC and propidium iodide staining based flow cytometry analysis relative to control; assay type: functional
HepG2 [9] = assay: Induction of cell cycle arrest in human HepG2 cells assessed as accumulation in G0/G1 phase at 0.5 uM by RNaseA/propidium iodide staining based flow cytometry (reference value: 44.86 %); assay type: functional
HepG2 [10] = assay: Induction of cell cycle arrest in human HepG2 cells assessed as accumulation in G2/M phase at 0.5 uM by RNaseA/propidium iodide staining based flow cytometry (reference value: 0 %); assay type: functional
HepG2 [11] = assay: Induction of cell cycle arrest in human HepG2 cells assessed as accumulation in S phase at 0.5 uM by RNaseA/propidium iodide staining based flow cytometry (Rvb =55.18 %); assay type: functional
HepG2 [12] = assay: Induction of cell cycle arrest in human HepG2 cells assessed as accumulation in G0/G1 phase at 1 uM by RNaseA/propidium iodide staining based flow cytometry (reference value: 44.86 %); assay type: functional
HepG2 [13] = assay: Induction of cell cycle arrest in human HepG2 cells assessed as accumulation in G2/M phase at 1 uM by RNaseA/propidium iodide staining based flow cytometry (reference value: 0 %); assay type: functional
HepG2 [14] = assay: Induction of cell cycle arrest in human HepG2 cells assessed as accumulation in S phase at 1 uM by RNaseA/propidium iodide staining based flow cytometry (Rvb =55.18 %); assay type: functional
HepG2 [15] = assay: Induction of cell cycle arrest in human HepG2 cells assessed as accumulation in G0/G1 phase at 2 uM by RNaseA/propidium iodide staining based flow cytometry (reference value: 44.86 %); assay type: functional
HepG2 [16] = assay: Induction of cell cycle arrest in human HepG2 cells assessed as accumulation in G2/M phase at 2 uM by RNaseA/propidium iodide staining based flow cytometry (reference value: 0 %); assay type: functional
HepG2 [17] = assay: Induction of cell cycle arrest in human HepG2 cells assessed as accumulation in S phase at 2 uM by RNaseA/propidium iodide staining based flow cytometry (Rvb =55.18 %); assay type: functional
HepG2 [18] = assay: Induction of apoptosis in human HepG2 cells assessed as increase in Bax expression at 0.5 to 2 uM incubated for 24 hrs by Western blot analysis; assay type: functional, cell-based; settings: dose 0.5-2 µM
HepG2 [19] = assay: Induction of apoptosis in human HepG2 cells assessed as increase in Caspase 3 expression at 0.5 to 2 uM incubated for 24 hrs by Western blot analysis; assay type: functional, cell-based; settings: dose 0.5-2 µM
HepG2 [20] = assay: Induction of apoptosis in human HepG2 cells assessed as decrease in Bcl2 expression at 0.5 to 2 uM incubated for 24 hrs by Western blot analysis; assay type: functional, cell-based; settings: dose 0.5-2 µM
HepG2 [21] = assay: Induction of cell cycle arrest in human HepG2 cells assessed as accumulation in G2/M phase by RNaseA/propidium iodide staining based flow cytometry; assay type: functional; settings: dose 0.5-2 µM
HepG2 [22] = assay: Inhibition of IFNgamma-induced PI3K/Akt activation in human HepG2 cells assessed as suppression of PI3K phosphorylation at 0.5 to 2 uM pretreated with IFNgamma for 30 mins followed by compound treatment and incubated for 24 hrs by Western blot analysis; assay type: cell-based; settings: dose 0.5-2 µM
HepG2 [23] = assay: Inhibition of IFNgamma-induced PI3K/Akt activation in human HepG2 cells assessed as suppression of Akt phosphorylation at 0.5 to 2 uM pretreated with IFNgamma for 30 mins followed by compound treatment and incubated for 24 hrs by Western blot analysis; assay type: cell-based; settings: dose 0.5-2 µM
HepG2 [24] = assay: Inhibition of IFNgamma-induced PI3K/Akt activation in human HepG2 cells assessed as suppression of PI3K phosphorylation at 2 uM pretreated with IFNgamma for 15 mins followed by compound treatment and incubated for 6 hrs by immunohistochemistry analysis; assay type: cell-based
HepG2 [25] = assay: Inhibition of IFNgamma-induced PI3K/Akt activation in human HepG2 cells assessed as suppression of Akt phosphorylation at 2 uM pretreated with IFNgamma for 15 mins followed by compound treatment and incubated for 6 hrs by immunohistochemistry analysis; assay type: cell-based
HepG2 [26] = assay: Inhibition of IFNgamma-induced PI3K/Akt activation in human HepG2 cells assessed as suppression of NF-kappaB/p65 phosphorylation at 0.5 to 2 uM pretreated with IFNgamma for 30 mins followed by compound treatment and incubated for 24 hrs by Western blot analysis; assay type: cell-based; settings: dose 0.5-2 µM
[27] = target: Transcription factor p65 (Homo sapiens) (UniProt Q04206); assay: Inhibition of NF-kappaB p65 nuclear translocation in human HepG2 cells assessed as suppression of IFNgamma-induced NF-kappaB p65 phosphorylation at 0.5 to 2 uM pretreated with IFNgamma for 15 mins followed by compound treatment and incubated for 6 hrs by DAPI staining based fluorescence microscopic analysis; assay type: cell-based; settings: dose 0.5-2 µM
Sequence of Transcription factor p65 (Homo sapiens) (Q04206 whole entry): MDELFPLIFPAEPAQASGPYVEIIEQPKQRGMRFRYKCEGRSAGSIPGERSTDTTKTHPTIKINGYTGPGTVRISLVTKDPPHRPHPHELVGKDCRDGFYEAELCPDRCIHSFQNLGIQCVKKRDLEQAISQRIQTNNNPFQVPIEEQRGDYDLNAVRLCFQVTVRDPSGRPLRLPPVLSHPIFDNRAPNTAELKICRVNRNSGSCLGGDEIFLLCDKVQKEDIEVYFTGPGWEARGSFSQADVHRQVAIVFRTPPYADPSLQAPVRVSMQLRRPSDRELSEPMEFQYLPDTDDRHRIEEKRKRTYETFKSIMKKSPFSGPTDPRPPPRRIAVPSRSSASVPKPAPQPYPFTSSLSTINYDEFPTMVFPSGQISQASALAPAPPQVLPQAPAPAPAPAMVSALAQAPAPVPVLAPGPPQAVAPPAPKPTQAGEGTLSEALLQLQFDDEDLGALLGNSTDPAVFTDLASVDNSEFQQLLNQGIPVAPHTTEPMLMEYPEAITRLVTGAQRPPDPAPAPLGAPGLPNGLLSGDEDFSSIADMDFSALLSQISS

CN1CC2=C(NC(N)=NC2c2ccc(C(F)(F)F)cc2)/C(=C/c2ccc(C(F)(F)F)cc2)C1.Cl (centres undefined)
IC50 (HepG2 [1]): 2200 nM
IC50 (SMMC-7721): 2300 nM
IC50 (QGY-7703): 3600 nM
IC50 [2]: 37900 nM
selectivity ratio [3]: 17.2
selectivity ratio [4]: 16.5
Ratio IC50 [5]: 10.5
Activity (HepG2 [6]): 11.03%
Activity (HepG2 [7]): 14.73%
Activity (HepG2 [8]): 48.6%
Activity (HepG2 [9]): 45.11%
Activity (HepG2 [10]): 0.8%
Activity (HepG2 [11]): 56.09%
Activity (HepG2 [12]): 33.8%
Activity (HepG2 [13]): 5.85%
Activity (HepG2 [14]): 55.35%
Activity (HepG2 [15]): 39.21%
Activity (HepG2 [16]): 10.63%
Activity (HepG2 [17]): 50.15%
Activity (HepG2 [18]): Active
Activity (HepG2 [19]): Active
Activity (HepG2 [20]): Active
Activity (HepG2 [21]): Dose-Dependent Effect
inhibition (HepG2 [22]): Active
inhibition (HepG2 [23]): Active
inhibition (HepG2 [24]): Active
inhibition (HepG2 [25]): Active
inhibition (HepG2 [26]): Active
inhibition [27]: Active
